The supplement of paper PMC11451515

Tested on: SEM cells
Assay: cell viability relative to DMSO control; higher = less cytotoxic
Details: 48 h
In short: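 Viability is a per-plate percentage relative to DMSO wells, with cell-free wells as background. CellTiter-Glo One luminescence was read after 48 h at 37°C on 1536-well plates (5 μl) of NOMO1 or SEM (500 cells/well) or P12-Ichikawa (1000 cells/well) leukemia cells. The cells had been adapted for at least four passages in each medium and pin-dosed with library compounds in DMSO from 47 μM to 0.79 nM in 11 threefold steps.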

[1] = HPLM + 10% dialyzed FBS, 0.000781 µM
[2] = HPLM + 10% dialyzed FBS, 0.00234 µM
[3] = HPLM + 10% dialyzed FBS, 0.00702 µM
[4] = HPLM + 10% dialyzed FBS, 0.0211 µM
[5] = HPLM + 10% dialyzed FBS, 0.0632 µM
[6] = HPLM + 10% dialyzed FBS, 0.19 µM
[7] = HPLM + 10% dialyzed FBS, 0.569 µM
[8] = HPLM + 10% dialyzed FBS, 1.71 µM
[9] = HPLM + 10% dialyzed FBS, 5.12 µM
[10] = HPLM + 10% dialyzed FBS, 15.4 µM
[11] = HPLM + 10% dialyzed FBS, 46.1 µM
[12] = RPMI 5 mM glucose + 10% FBS, 0.000781 µM
[13] = RPMI 5 mM glucose + 10% FBS, 0.00234 µM
[14] = RPMI 5 mM glucose + 10% FBS, 0.00702 µM
[15] = RPMI 5 mM glucose + 10% FBS, 0.0211 µM
[16] = RPMI 5 mM glucose + 10% FBS, 0.0632 µM
[17] = RPMI 5 mM glucose + 10% FBS, 0.19 µM
[18] = RPMI 5 mM glucose + 10% FBS, 0.569 µM
[19] = RPMI 5 mM glucose + 10% FBS, 1.71 µM
[20] = RPMI 5 mM glucose + 10% FBS, 5.12 µM
[21] = RPMI 5 mM glucose + 10% FBS, 15.4 µM
[22] = RPMI 5 mM glucose + 10% FBS, 46.1 µM
[23] = RPMI 5 mM glucose + 10% dialyzed FBS, 0.000781 µM
[24] = RPMI 5 mM glucose + 10% dialyzed FBS, 0.00234 µM
[25] = RPMI 5 mM glucose + 10% dialyzed FBS, 0.00702 µM
[26] = RPMI 5 mM glucose + 10% dialyzed FBS, 0.0211 µM
[27] = RPMI 5 mM glucose + 10% dialyzed FBS, 0.0632 µM
[28] = RPMI 5 mM glucose + 10% dialyzed FBS, 0.19 µM
[29] = RPMI 5 mM glucose + 10% dialyzed FBS, 0.569 µM
[30] = RPMI 5 mM glucose + 10% dialyzed FBS, 1.71 µM
[31] = RPMI 5 mM glucose + 10% dialyzed FBS, 5.12 µM
[32] = RPMI 5 mM glucose + 10% dialyzed FBS, 15.4 µM
[33] = RPMI 5 mM glucose + 10% dialyzed FBS, 46.1 µM

Row | Structure (SMILES) | cell viability [1] | cell viability [2] | cell viability [3] | cell viability [4] | cell viability [5] | cell viability [6] | cell viability [7] | cell viability [8] | cell viability [9] | cell viability [10] | cell viability [11] | cell viability [12] | cell viability [13] | cell viability [14] | cell viability [15] | cell viability [16] | cell viability [17] | cell viability [18] | cell viability [19] | cell viability [20] | cell viability [21] | cell viability [22] | cell viability [23] | cell viability [24] | cell viability [25] | cell viability [26] | cell viability [27] | cell viability [28] | cell viability [29] | cell viability [30] | cell viability [31] | cell viability [32] | cell viability [33]
1 | CNC(=O)c1cc(COc2nnc(Nc3ccc(Cl)cc3)c3ccoc23)ccn1 | 108% | 112% | 102% | 110% | 121% | 97.9% | 96% | 108% | 102% | 79.9% | 61.2% | 124% | 124% | 110% | 124% | 117% | 127% | 128% | 129% | 97.1% | 95% | 64.7% | 96.6% | 108% | 90.4% | 99% | 95.4% | 104% | 102% | 86.1% | 88.4% | 70.4% | 47.9%
2 | OCCN1CCN(CCCN2c3ccccc3Sc3ccc(C(F)(F)F)cc32)CC1 | 85.3% | 90% | 80.6% | 34.4% | 104% | 110% | 7.1% | 37.4% | 88.7% | 49.5% | 47.8% | 74.8% | 89.4% | 85.7% | 36% | 96.2% | 122% | 7.38% | 21.4% | 102% | 47.6% | 34.1% | 76.3% | 87.2% | 86.3% | 74.5% | 84% | 115% | 13.7% | 31.1% | 92.3% | 46.3% | 35.9%
3 | CN1C(=O)\C(=C/C2=C1N=C(NC3CCOCC3)N=C2)OC4=C(F)C=C(F)C=C4 | 99.6% | 97.4% | 98.4% | 102% | 99.1% | 90.3% | 93.3% | 92% | 78.9% | 92.7% | 45.6% | 112% | 100% | 125% | 112% | 105% | 112% | 121% | 105% | 97.1% | 115% | 45.6% | 93.3% | 106% | 94.8% | 68.2% | 93.8% | 96.9% | 95.9% | 92% | 96.2% | 88.3% | 42.9%
4 | CC(=O)O/N=C1/C(=C2\C(=O)Nc3cc(Br)ccc32)Nc2ccccc21 | 128% | 110% | 119% | 118% | 111% | 113% | 86.1% | 37.8% | 32.8% | 13.2% | 2.6% | 112% | 116% | 109% | 108% | 119% | 102% | 87.6% | 29.5% | 22.4% | 8.09% | 0.612% | 113% | 122% | 122% | 129% | 100% | 95% | 84.6% | 30.1% | 37.5% | 11.8% | 1.61%
5 | CNC(=O)c1cc(Oc2ccc(NC(=O)Nc3ccc(Cl)c(C(F)(F)F)c3)c(F)c2)ccn1 | 83.2% | 91.4% | 91.1% | 78.4% | 84.3% | 80.6% | 39.7% | 43.7% | 35.3% | 25.9% | 25.1% | 97% | 101% | 112% | 114% | 73.8% | 89.4% | 44.1% | 44.1% | 31.6% | 27.2% | 21.8% | 86.9% | 96.7% | 82.1% | 84% | 61.7% | 73.6% | 47.3% | 31.7% | 26.9% | 18.8% | 20.3%
6 | CN1CCC(=C2c3ccccc3CCc3sccc32)CC1 | 75.4% | 85% | 107% | 94.1% | 101% | 109% | 93.3% | 111% | 102% | 95.8% | 51.1% | 81.8% | 104% | 97.4% | 106% | 96.1% | 113% | 111% | 120% | 97.3% | 117% | 82.1% | 82.5% | 110% | 114% | 99.5% | 104% | 118% | 122% | 111% | 124% | 108% | 68.3%
7 | CCNC(=O)c1noc(-c2cc(C(C)C)c(O)cc2O)c1-c1ccc(CN2CCOCC2)cc1 | 90.6% | 97.5% | 92.4% | 103% | 31.8% | 21.1% | 20.2% | 20.9% | 19.6% | 17.3% | 14.2% | 95.2% | 102% | 102% | 102% | 27.1% | 21.6% | 19.8% | 19.6% | 19.4% | 14.1% | 7.66% | 101% | 95.7% | 89.5% | 99.5% | 36.1% | 24.9% | 26.4% | 22.6% | 18.6% | 19.2% | 11.2%
8 | CCC1=C2CN3C(=O)\C4=C(/C=C3/C2=NC5=CC=C(O)C=C15)[C@@](O)(CC)C(=O)OC4 | 96.7% | 95.6% | 91.4% | 28.1% | 19.3% | 17% | 11.6% | 6.74% | 6.74% | 6.36% | 4.6% | 108% | 102% | 67.7% | 25.6% | 15.6% | 16.1% | 12.9% | 6.76% | 7.58% | 5.69% | 5.1% | 94.5% | 89.1% | 65% | 28% | 16.6% | 15.2% | 12.8% | 6.01% | 7.69% | 5.69% | 4.62%
9 | Cc1cccc(Nc2nc(N[C@@H]3CCCC[C@@H]3N)ncc2C(N)=O)c1 | 109% | 107% | 112% | 104% | 107% | 118% | 114% | 88.6% | 44% | 30.9% | 32.3% | 66.2% | 80.1% | 78% | 79.7% | 69.8% | 89.4% | 87.1% | 74.2% | 33.8% | 11.5% | 14.5% | 95.7% | 126% | 104% | 112% | 103% | 114% | 96.2% | 81.1% | 25.6% | 23.3% | 25%
10 | CN(C)c1ccccc1CN1CCCN(Cc2ccccc2N(C)C)C1c1ccncc1 | 81.3% | 91.2% | 86.8% | 23% | 95.2% | 94.9% | 92.5% | 92.6% | 112% | 97.1% | 83.3% | 75.5% | 85.3% | 102% | 15% | 104% | 99.3% | 101% | 93.9% | 93.4% | 5.51% | 49.4% | 73.4% | 79.7% | 95.1% | 18.1% | 117% | 111% | 113% | 98.3% | 98.2% | 87.8% | 80%
11 | CCOC\1=C(/C(=O)NC2=CC=C(OC3=C(Cl)C(=NC=C3)N)C(=C2)F)C(=O)N(\C=C1)C4=CC=C(F)C=C4 | 95.5% | 97.7% | 98.4% | 94.7% | 91.1% | 76.8% | 63.3% | 50.6% | 32.8% | 28.9% | 15% | 122% | 118% | 105% | 95.9% | 98.4% | 91.1% | 75.5% | 53.3% | 39.7% | 27.5% | 6.35% | 92.1% | 83.9% | 96% | 90.1% | 82.4% | 76.4% | 57% | 40% | 33.9% | 22.9% | 6.07%
12 | NC(=O)Cc1cccc(C(=O)c2ccccc2)c1N | 73% | 99.4% | 96.9% | 39.7% | 113% | 115% | 109% | 99.6% | 96% | 101% | 104% | 95.7% | 38.4% | 90.7% | 33.4% | 101% | 95.2% | 95% | 107% | 95.5% | 88.8% | 85.1% | 44.3% | 78.3% | 101% | 43.1% | 97.4% | 107% | 103% | 112% | 95.4% | 105% | 85.2%
13 | CC(C)(OCc1nn(Cc2ccccc2)c2ccccc12)C(=O)O | 100% | 101% | 95.4% | 103% | 116% | 97.4% | 108% | 100% | 97.5% | 109% | 92.6% | 99.4% | 95.2% | 116% | 101% | 109% | 93.9% | 94% | 112% | 109% | 96% | 96.5% | 94.7% | 103% | 107% | 104% | 97.1% | 102% | 115% | 100% | 104% | 103% | 96.4%
14 | CC1(C)NC(=O)N(c2ccc([N+](=O)[O-])c(C(F)(F)F)c2)C1=O | 88.7% | 89.7% | 82.5% | 90.8% | 96.9% | 44.9% | 94% | 90.8% | 81% | 87.4% | 84.6% | 98.7% | 79.5% | 92.9% | 96.7% | 104% | 86% | 99.6% | 94.9% | 110% | 87.7% | 93.9% | 99.4% | 91% | 101% | 109% | 96.3% | 74.5% | 104% | 106% | 106% | 78.9% | 90%
15 | COc1ccc(CC2SC(=O)NC2=O)cc1C(=O)NCc1ccc(C(F)(F)F)cc1 (stereo not given) | 75% | 82.5% | 79% | 82.5% | 73.6% | 92.5% | 76.9% | 83.2% | 95.9% | 79.2% | 40.4% | 90% | 86.8% | 101% | 84.1% | 79.8% | 109% | 96.5% | 106% | 101% | 89.9% | 45.2% | 88% | 88.8% | 88.4% | 87.6% | 77.6% | 98.8% | 93.8% | 97.4% | 38.6% | 83.6% | 56.1%
